Like-named read-outs stand apart in the source and are kept apart here.
Legend:
[1] = system: P388 lymphocytic leukaemia; experiment: In vivo antitumor screening against P388 lymphocytic leukaemia in mice; conditions: Mus musculus, P388, ip, free base, intraperitoneal, NCI protocols, read-out: Optimum T/C; for response vs control in vivo at 200 mg/kg: optimum dose 200 mg/kg; for response vs control in vivo at 100 mg/kg: optimum dose 100 mg/kg; for response vs control in vivo at 240 mg/kg: optimum dose 240 mg/kg
Description: ^a All compounds administered to mice as free bases via
intraperitoneal route according to NCI protocols.

rat liver DHFR = biological target: T1, rat liver DHFR (Rattus norvegicus, UniProt Q920D2); experiment: Inhibition of rat liver DHFR (spectrophotometric assay; I50 and Ki); assay type: biochemical
T1 construct: from tissue; host or cells: liver of male Wistar rats; homogenate supernatant, pH 5.1 step, dialysed, partially purified
T1 sequence (Q920D2 1-187): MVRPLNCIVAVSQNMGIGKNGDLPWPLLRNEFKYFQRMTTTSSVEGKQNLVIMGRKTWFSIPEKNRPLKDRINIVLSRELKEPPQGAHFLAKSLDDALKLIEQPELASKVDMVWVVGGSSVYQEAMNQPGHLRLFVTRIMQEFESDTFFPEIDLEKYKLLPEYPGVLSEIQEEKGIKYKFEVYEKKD
Description: All solutions were prepared on the day previous to the experiment and stored in the dark at 4° C. prior to use.
The stock solutions were diluted, as necessary, immediately before use to produce the required inhibitor concentration.
B.1 Preparation of partially purified DHFR
All further manipulations were performed at 4° C.: the livers (30.7 g) were transferred to a Waring blender to which approximately 8 volumes of water was added (final volume c.a. 300 ml), whereupon the mixture was homogenised for 2 minutes for periods of 30s, allowing 30s between each run to minimise heating. Liver homogenate was centrifuged at approximately 20,000 g for 20 minutes and the pellet was discarded. The supernatant liquid was adjusted to pH 5.1 with dilute acetic acid (1.0 M initially and 0.1 M finally) and after centrifugation at 27,000 g for a further 20 minutes, the clear wine-red solution was transferred to visking tubing (2.5 cm diameter) and dialysed for 12 hours against 0.01 sodium acetate buffer solution. The dialysate was examined and if turbid, centrifuged again at 27,000 g for 20 minutes. The clear preparation was transferred to sterile plastic stoppered tubes (10 ml) and stored at -10° C. prior to use.
B.2. Preparation of reagent solutions
The buffer was kept at 4° C. to prevent bacterial growth and discarded after 3 days.
The solution was maintained at 0° C.
An aqueous solution of NADPH (2 mg.ml^-1, 2.0 mM) was prepared immediately prior to use and again maintained at 0° C.
B.3 Assay for inhibitor activity
Plastic disposable cuvettes were used throughout.
The assay was carried out as follows: NADPH (0.1 ml) and the enzyme preparation (0.1 ml) were incubated at 30° C. for 5 minutes in phosphate buffer (total volume 1.9 ml).
Reference cuvettes were set up containing NADPH, buffer, inhibitor if appropriate and dihydrofolate, but without enzyme (Table A).
Enzyme activity was estimated from the slope of the change of absorbance with time and this was arbitrarily designated as 100% for the uninhibited enzyme.
The remaining inhibitors were selected for I50 determinations and inhibitory activity was evaluated in duplicate at a minimum of four inhibitor concentrations, from which the I50 value was determined by a graphical method.
Compounds selected for inhibition constant (KI) determinations were assayed following an identical method to that described above except that inhibitory activity was measured at a minimum of ten inhibitor concentrations, again in duplicate, from which the appropriate KI values were determined by a Zone B analysis.

[2] = system: L1210 murine leukaemia cells; experiment: In vitro cytotoxicity against L1210 cells; assay type: cell-based; conditions: Mus musculus
Description: In vitro cytotoxicity studies
Cells were seeded routinely every 72 hours at 10^4 cells.ml^-1 and counted as 10^6 cells.ml^-1 prior to each experiment and counts were performed following incubation (5% CO2 in air at full humidity) for 72 hours at 37° C., with the appropriate concentration of drug.

[3] = system: M5076 reticulum cell sarcoma; assay type: in vivo; conditions: for Death: mouse, in vivo;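 on all read-outs here: mice bearing tumor implanted intramuscularly on day 1, given compound intraperitoneally once a day for 17 days in arachis oil containing 10% DMSO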
Description: Tumor: implanted intramuscularly on day 1
Drug: in 10% DMSO/arachis oil administered daily for
17 days by intraperitoneal route.
*Test/Control assessed at day 24

[4] = Table II, rat liver DHFR, 95% confidence limits, read-out: Ki
[5] = Table I, solvent B = 0.1 M hydrochloric acid, read-out: I50, inhibition of rat liver DHFR
[6] = Table IV, 72 hours, read-out: IC50 (L1210 cells)
[7] = Table IV, read-out: I50, rat liver dihydrofolate reductase
[8] = Table III, drug concentration necessary to reduce the 72 hour cell count to 50% of control, read-out: IC50, cytotoxicity against L1210 cells in vitro
[9] = 0.75 mg/kg/day, Test/Control assessed at day 24, i.p.
[10] = 3.125 mg/kg/day, Test/Control assessed at day 24, i.p.
[11] = 6.25 mg/kg/day, Test/Control assessed at day 24, i.p.
[12] = 12.5 mg/kg/day, Test/Control assessed at day 24, i.p.

## CCc1nc(N)nc(N)c1-c1ccc(N(C)Cc2ccccc2)c([N+](=O)[O-])c1 [Compound 6, 2,4-Diamino-6-ethyl-5-(4-N-methylbenzylamino-3-nitrophenyl)pyrimidine]
[1]; optimum dose 480 mg/kg
  response vs control in vivo at 480 mg/kg: 205%

## CCc1nc(N)nc(N)c1-c1ccc(N(CC)Cc2ccccc2)c([N+](=O)[O-])c1 [Compound 7, 2,4-Diamino-6-ethyl-5-(4-N-ethylbenzylamino-3-nitrophenyl)pyrimidine]
[1]
  response vs control in vivo at 200 mg/kg: 144%
Rat liver DHFR; [4]
  Ki: 0.04 ± 0.03 nM

## CCc1nc(N)nc(N)c1-c1ccc(OC)c([N+](=O)[O-])c1 [OMe]
[1]; optimum dose 120 mg/kg
  response vs control in vivo at 120 mg/kg: 189%
Rat liver DHFR; [5]
  IC50: 180 nM

## CCc1nc(N)nc(N)c1-c1ccc(N(C)Cc2ccc(C(=O)OC)cc2)c([N+](=O)[O-])c1 [Compound 15, 2,4-Diamino-6-ethyl-5-{4-[N-(4-methoxycarbonylbenzyl)-N-methylamino]-3-nitrophenyl}pyrimidine]
[2]; [6]
  IC50: 100 nM

## CCCCOc1ccc(-c2c(N)nc(N)nc2CC)cc1[N+](=O)[O-] [OBu^n]
Rat liver DHFR; Table I, solvent A = water, tested as ethanesulphonate salt, read-out: I50, inhibition of rat liver DHFR
  IC50: 60 nM
Rat liver DHFR; [4]
  Ki: 0.08 ± 0.06 nM

## CCc1nc(N)nc(N)c1-c1ccc(N(C)Cc2ccc(OC)cc2)c([N+](=O)[O-])c1 [Compound 17, 2,4-Diamino-6-ethyl-5-{4-[N-(4-methoxybenzyl)-N-methylamino]-3-nitrophenyl}pyrimidine]
[2]; [6]
  IC50: 70 nM

## CCOc1ccc(-c2c(N)nc(N)nc2CC)cc1[N+](=O)[O-] [OEt]
Rat liver DHFR; [5]
  IC50: 140 nM

## Cc1nc(N)nc(N)c1-c1ccc(Cl)c(Cl)c1 [metoprine, reference compound]
[1]; optimum dose 50 mg/kg
  response vs control in vivo at 50 mg/kg: 140%

## CCc1nc(N)nc(N)c1-c1ccc(NCc2ccc(OC)cc2)c([N+](=O)[O-])c1 [Compound 18, 2,4-Diamino-6-ethyl-5-{4-[N-(4-methoxybenzyl)amino]-3-nitrophenyl}pyrimidine]
Rat liver DHFR; [7]
  IC50: 21 nM
Rat liver DHFR; Table IV, read-out: Ki, rat liver dihydrofolate reductase
  Ki: 0.088 nM
[2]; [6]
  IC50: 50 nM

## CCc1nc(N)nc(N)c1-c1ccc(NC)c([N+](=O)[O-])c1 [Compound 1, 2,4-Diamino-5-(4-methylamino-3-nitrophenyl)-6-ethylpyrimidine]
[1]
  response vs control in vivo at 100 mg/kg: 182%

## CCc1nc(N)nc(N)c1-c1ccc(NCc2ccc(C)cc2)c([N+](=O)[O-])c1 [Compound 25, 2,4-Diamino-5-[4-(4-methylbenzylamino)-3-nitrophenyl]-6-ethylpyrimidine]
[3]; ip, 3.125 mg/kg, 576 h
  T/C × 100: 76
[3]; ip, 6.25 mg/kg, 576 h
  T/C × 100: 44
[3]; ip, 12.5 mg/kg, 576 h
  T/C × 100: 24
[3]; ip, 25 mg/kg, 576 h
  T/C × 100: 20
[3]
  Death: Dead

## CCOCCOC(=O)c1ccc(CN(C)c2ccc(-c3c(N)nc(N)nc3CC)cc2[N+](=O)[O-])cc1 [Compound 16]
Rat liver DHFR; [7]
  IC50: 1.5 nM
[2]; [6]
  IC50: 40 nM

## CCCCNc1ccc(-c2c(N)nc(N)nc2CC)cc1[N+](=O)[O-] [Compound 4, 2,4-Diamino-5-(4-n-butylamino-3-nitrophenyl)-6-ethylpyrimidine]
[1]
  response vs control in vivo at 240 mg/kg: 206%
Rat liver DHFR; Table II, rat liver DHFR, 95% confidence limits, tested as ethanesulphonate salt, read-out: Ki
  Ki: 0.19 ± 0.05 nM
[2]; [8]
  IC50: 200 nM

## CCc1nc(N)nc(N)c1-c1ccc(N(C)C)c([N+](=O)[O-])c1 [Compound 3, 2,4-Diamino-5-(4-dimethylamino-3-nitrophenyl)-6-ethylpyrimidine]
[1]
  response vs control in vivo at 100 mg/kg: 145%

## CCc1nc(N)nc(N)c1-c1ccc(N(C)Cc2ccc(C(=O)NC)cc2)c([N+](=O)[O-])c1 [Compound 19, 2,4-Diamino-6-ethyl-5-(4-{N-[4-(N-methylcarbamoyl)benzyl]-N-methylamino}-3-nitrophenyl)pyrimidine]
[3]; [9]
  T/C × 100: 67
[3]; [10]
  T/C × 100: 41
[3]; [11]
  T/C × 100: 30
[3]; [12]
  T/C × 100: 15
[3]; ip, 12.5 mg/kg
  Tumor volume: 443 mm^3
[2]; [6]
  IC50: 25 nM

## CCc1nc(N)nc(N)c1-c1ccc(NC(C)c2ccccc2)c([N+](=O)[O-])c1 (racemic) [Compound 9, 2,4-diamino-6-ethyl-5-(4-(±)-α-methylbenzylamino-3-nitrophenyl)-pyrimidine]
[1]; optimum dose 30 mg/kg
  response vs control in vivo at 30 mg/kg: 132%

## CCc1nc(N)nc(N)c1-c1ccc(NCCc2ccccc2)c([N+](=O)[O-])c1 [Compound 10, 2,4-Diamino-6-ethyl-5-(3-nitro-4-phenethylaminophenyl)-pyrimidine]
[1]
  response vs control in vivo at 200 mg/kg: 142%

## CCc1nc(N)nc(N)c1-c1ccc(NCc2ccc(Cl)c(Cl)c2)c([N+](=O)[O-])c1 [Compound 23, 2,4-Diamino-5-[4-(3,4-dichlorobenzylamino)-3-nitrophenyl]-6-ethylpyrimidine]
[3]; ip, 3.125 mg/kg, 576 h
  T/C × 100: 48
[3]; ip, 6.25 mg/kg, 576 h
  T/C × 100: 36
[3]; ip, 12.5 mg/kg, 576 h
  T/C × 100: 16
[3]; ip, 25 mg/kg, 576 h
  T/C × 100: < 8
[3]; ip, 50 mg/kg, 576 h
  T/C × 100: < 8

## CCc1nc(N)nc(N)c1-c1ccc(N(C)Cc2ccc(C(=O)O)cc2)c([N+](=O)[O-])c1.O [Compound 20, 2,4-Diamino-6-ethyl-5-{4-[N-(4-carboxybenzyl)-N-methylamino]-3-nitrophenyl}pyrimidine monohydrate]
[3]; [9]
  T/C × 100: 100
[3]; [10]
  T/C × 100: 107
[3]; [11]
  T/C × 100: 89
[3]; [12]
  T/C × 100: 100
[2]; [6]
  IC50: 15 nM

## CCc1nc(N)nc(N)c1-c1ccc(NCc2ccccc2)c([N+](=O)[O-])c1 [Compound 5, 2,4-Diamino-5-(4-benzylamino-3-nitrophenyl)-6-ethylpyrimidine]
[1]
  response vs control in vivo at 240 mg/kg: 126%
[2]; [8]
  IC50: < 1 nM

## CCc1nc(N)nc(N)c1-c1ccc(NCc2ccc(C(F)(F)F)cc2)c([N+](=O)[O-])c1 [Compound 28, 2,4-diamino-5-[3-nitro-4-(4-trifluoromethylbenzylamino)phenyl]-6-ethylpyrimidine]
[3]; ip, 3.125 mg/kg, 576 h
  T/C × 100: 40
[3]; ip, 6.25 mg/kg
  Tumor volume: 454 mm^3
[3]; ip, 6.25 mg/kg, 576 h
  T/C × 100: 20
[3]; ip, 12.5 mg/kg
  Tumor volume: 265 mm^3
[3]; ip, 12.5 mg/kg, 576 h
  T/C × 100: 12
[3]; ip, 25 mg/kg, 576 h
  T/C × 100: < 8
[3]
  Death: Dead

— US4992444A, “Antifolate agents” (priority 1986, dated 1991)
